# Measurements as given in patent publication US11753408B2, “Compounds and method for blocking transmission of malarial parasite” (The United States of America, as represented by the …, priority 2016, dated 2023).
# pEC50: −log10 of the molar value. Where two headings read alike, the source gives them in different places.
# Experiments:
# [1] = test system: Stage III-V gametocytes (blood stage P. falciparum parasites); experiment: In vitro drug activity on gametocytes (AlamarBlue viability assay); type: cell-based, Plasmodium falciparum; details: for pEC50: read-out: Gametocyte EC50
# Experimental: Cell culture. Asexual parasites of P. falciparum strain 3D7 were cultured as described previously [Trager W, et al., Journal of Parasitology 2005, 91: 484-486], Stage III-V gametocytes were selected and enriched with 3-day treatment with 50 mM N-acetylglucosamine (NAG) and the following Percoll density gradient centrifugation after gametocyte production [Tanaka T Q, et al., Molecular and Biochemical Parasitology, 2011, 111: 160-163], Gametocytes of HB3 and Dd2 strains were produced and then set up for assay in a similar process. HepG2 cells (ATCC, cat. no. 77400) were cultured in 175-cm^2 tissue culture flasks with 30 ml growth medium at 37° C. in a 5% CO2 humidified atmosphere. Growth medium was made with Dulbecco's Modified Eagle Medium with 10% fetal bovine serum (FBS). Growth medium was replaced every other day and cells were passed at 75% confluence.
# Compound screening experiments were performed as previously described [Tanaka T Q et al., Molecular and Biochemical Parasitology, 2013, 3188: 20-25], Briefly, 2.5 μl/well incomplete medium was dispensed into each well of 1,536-well plates using the Multidrop Combi followed by 23 nl compound transferring using the NX-TR Pintool (WAKO Scientific Solutions, San Diego, Calif.). 2.5 μl/well of gametocytes was dispensed with a seeding density of 20,000 cells/well using the Multidrop Combi. The assay plates were incubated for 72 h at 37° C. with 5% CO2. After addition of 5 μl/well of 2× AlamarBlue dye (Life Technologies, cat. no. DALI 100), the plates were incubated for 24 h at 37° C. with 5% CO2 and were read in a fluorescence detection mode (Ex=525 nm, Em=598 nm) on a ViewLux plate reader (PerkinElmer).
# Stage III-V gametocytes (blood stage P. falciparum parasites) were enriched with treatment with 50 mM N-acetylglucosamine (NAG) and Percoll density gradient centrifugation as described previously^1. Briefly, 2.5 μl/well incomplete medium was dispensed into each well of 1,536-well plates using the Multidrop Combi followed by 23 nl compound transfer using the NX-TR Pintool (WAKO Scientific Solutions, San Diego, Calif.). Then, 2.5 μl/well of gametocytes was dispensed with a seeding density of 20,000 cells/well using the Multidrop Combi. The assay plates were incubated for 72 h at 37° C. with 5% CO2. After addition of 5 μl/well of 2× AlamarBlue dye (Life Technologies, cat. no. DALI 100), the plates were incubated for 24 h at 37° C. with 5% CO2 and then were read in a fluorescence detection mode (Ex=525 nm, Em=598 nm) on a ViewLux plate reader (PerkinElmer).
# [2] = test system: Asexual parasites of P. falciparum strain 3D7; experiment: In vitro drug activity on asexual parasites (SYBR Green assay); type: cell-based, Plasmodium falciparum
# Summary of the method: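 SYBR Green I fluorescence (ex 490, em 520 nm) was read after freeze-thaw lysis and 30 min staining at room temperature. Before that, drug-treated cultures (0.5% parasitemia, 2% hematocrit, DMSO ≤0.5%) were incubated 72 h, in duplicate.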
# [3] = Microsomal stability (rat); type: in vitro ADME; details: rat microsomes
# [4] = Solubility at pH 7.4; type: physicochemical
# [5] = molecular target: mTOR (Homo sapiens, UniProt P42345); experiment: mTOR activity (no method described); type: biochemical
# [6] = P. falciparum stage III-V gametocytes, 72 h incubation, AlamarBlue
# [7] = P. falciparum 3D7 asexual parasites, 72 h, SYBR Green
"pEC50 [2, 7]",Microsomal Stability (rat) T1/2 [3] [min],Sol @ pH 7.4 (ug/mL) [4] [ug/mL],pEC50 [2],mTOR [5] [nM],Sol @ pH 7.4 [4] [ug/mL],Structure (SMILES),"pEC50 [1, 6]",pEC50 [1],Gametocyte EC50 [1]
6.38,1.7,<1.0,–,–,–,CCN(CC)S(=O)(=O)c1ccc(-n2c(=O)ccc3cnc4ccc(-c5ccc(Cl)cc5)cc4c32)cc1 [Compound 39],6.37,–,–
–,–,–,6.68,12440,–,CN(C)CCc1ccc(-c2ccc3ncc4ccc(=O)n(-c5ccc(C(=O)N6CCOCC6)cc5)c4c3c2)cc1 [Compound 186],–,6.24,–
–,–,0,–,–,–,NCCc1ccc(-c2ccc3ncc4ccc(=O)n(-c5ccc6c(c5)CNC6=O)c4c3c2)cc1 [Compound 377],6.42,–,–
7.14,18,>66,–,–,–,Cc1c(C#N)cccc1-n1c(=O)ccc2cnc3ccc(-c4ccc(CN(C)C)cc4)cc3c21 [Compound 10],6.33,–,–
6.94,–,0,–,–,–,O=C1Cc2ccc(-n3c(=O)ccc4cnc5ccc(-c6ccc(Cl)cc6)cc5c43)cc2N1 [Compound 376],6.70,–,–
7.91,>30.00,10,–,–,–,Nc1ccc(-c2ccc3ncc4ccc(=O)n(-c5ccc6c(c5)CCC(=O)N6)c4c3c2)cn1 [Compound 391],7.25,–,–
–,–,–,6.57,630.3,–,Cn1c(=O)n(-c2cccc(C#N)c2)c2c3cc(-c4ccc5[nH]cnc5c4)ccc3ncc21 [Compound 445],–,6.13,–
–,–,–,6.35,5312,–,NC1(c2ccc(-c3ccc4ncc5ccc(=O)n(-c6ccc(C(=O)N7CCOCC7)cc6)c5c4c3)cc2)CC1 [Compound 178],–,6.04,–
–,–,–,7.85,584.2,–,Cn1c(=O)n(-c2ccc(N3CCNCC3)c(C#N)c2)c2c3cc(-c4ccc(F)cc4)ccc3ncc21 [Compound 414],–,7.41,–
7.16,12.4,<1.0,–,–,–,CN1Cc2cc(-n3c(=O)ccc4cnc5ccc(-c6ccc(Cl)cc6)cc5c43)ccc2C1=O [Compound 341],7.08,–,–
7.64,6.3,<1.0,–,–,–,CCNS(=O)(=O)c1ccc(-n2c(=O)ccc3cnc4ccc(-c5ccc(Cl)cc5)cc4c32)cc1 [Compound 41],7.05,–,–
6.26,–,>68.0,–,–,–,CN(C)Cc1ccc(-c2ccc3ncc4ccc(=O)n(-c5ccc6c(c5)CC(=O)N6)c4c3c2)cc1 [Compound 350],6.00,–,–
7.70,>30.0,<1.0,–,–,–,CS(=O)(=O)c1ccc(-n2c(=O)ccc3cnc4ccc(-c5ccc(F)cc5)cc4c32)cc1 [Compound 29],7.05,–,–
–,–,0.02,–,–,–,N#Cc1cc(-n2c(=O)ccc3cnc4ccc(-c5ccc(Cl)cc5)cc4c32)ccc1N1CCOCC1 [Compound 6],6.99,–,–
–,–,–,8.09,506.1,–,O=C(c1ccc(-n2c(=O)ccc3cnc4ccc(-c5ccccc5)cc4c32)cc1)N1CCOCC1 [Compound 125],–,7.40,–
–,–,–,7.40,930.6,–,Cc1cc(N2CCNCC2)c(C#N)cc1-n1c(=O)n(C)c2cnc3ccc(-c4ccc(F)cc4)cc3c21 [Compound 416],–,7.66,–
7.46,>30.0,<1.0,–,–,–,N#Cc1ccc(-n2c(=O)ccc3cnc4ccc(-c5ccc(N)nc5)cc4c32)cc1 [Compound 22],6.94,–,–
7.20,8.3,<1.0,–,–,–,O=c1ccc2cnc3ccc(-c4ccc(Cl)cc4)cc3c2n1-c1ccc(S(=O)(=O)NC2CC2)cc1 [Compound 46],6.59,–,–

"pEC50 [2, 7]",Microsomal Stability (rat) T1/2 [3] [min],Sol @ pH 7.4 (ug/mL) [4] [ug/mL],pEC50 [2],mTOR [5] [nM],Sol @ pH 7.4 [4] [ug/mL],Structure (SMILES),"pEC50 [1, 6]",pEC50 [1],Gametocyte EC50 [1]
7.60,>30.00,<0.10,–,–,–,O=C1CCc2cc(-n3c(=O)ccc4cnc5ccc(-c6ccc(Cl)cc6)cc5c43)ccc2N1 [Compound 356],7.18,–,–
6.84,51.7,>69.00,–,–,–,CN(C)Cc1ccc(-c2ccc3ncc4ccc(=O)n(-c5ccc([S+](C)[O-])cc5)c4c3c2)cc1 (centres unmarked) [Compound 54],6.41,–,–
7.09,–,0,–,–,–,COc1ccc(C#N)cc1-n1c(=O)ccc2cnc3ccc(-c4ccc(F)cc4)cc3c21 [Compound 13],6.87,–,–
7.42,>30.0,1.2,–,–,–,CS(=O)(=O)c1ccc(-n2c(=O)ccc3cnc4ccc(-c5ccc(Cl)c(O)c5)cc4c32)cc1 [Compound 26],6.75,–,–
–,–,–,6.62,213.5,–,NC(=O)c1cccc(-n2c(=O)ccc3cnc4ccc(-c5ccc(N)nc5)cc4c32)c1 [Compound 333],–,6.39,–
7.54,12.8,0,–,–,–,O=C1NCCc2cc(-n3c(=O)ccc4cnc5ccc(-c6ccc(Cl)cc6)cc5c43)ccc21 [Compound 367],6.98,–,–
8.21,>30.0,<1.0,–,–,–,Nc1ccc(-c2ccc3ncc4ccc(=O)n(-c5ccc(S(N)(=O)=O)cc5)c4c3c2)cn1 [Compound 78],7.94,–,–
–,–,–,7.67,15870,–,Cc1cc(N2CCNCC2)c(C#N)cc1-n1c(=O)n(C)c2cnc3ccc(-c4ccc(Cl)cc4)cc3c21 [Compound 415],–,7.73,–
–,11.3,–,4.35,–,<1.0,N#Cc1ccc(-n2c(=O)[nH]c3cnc4ccc(-c5ccc(Cl)cc5)cc4c32)cc1 [Compound 434],–,–,Inactive
–,–,–,6.35,100000,–,Cn1c(=O)n(-c2cccc(C#N)c2)c2c3cc(-c4ccc(C#N)cc4)ccc3ncc21 [Compound 442],–,5.70,–
6.23,>30.0,0,–,–,–,O=C1c2ccc(-n3c(=O)ccc4cnc5ccc(-c6ccc(Cl)cc6)cc5c43)cc2CN1C1CC1 [Compound 353],5.60,–,–
6.25,>30.00,>84.00,–,–,–,CN(C)Cc1ccc(-c2ccc3ncc4ccc(=O)n(-c5ccc(S(C)(=O)=O)c(N6CCOCC6)c5)c4c3c2)cc1 [Compound 62],5.88,–,–
5.69,>30.0,>77.0,–,–,–,CN(C)Cc1ccc(-c2ccc3ncc4ccc(=O)n(-c5ccc6c(c5)CN(CC(=O)O)C6=O)c4c3c2)cc1 [Compound 355],4.54,–,–
7.88,–,>66.00,–,–,–,Cc1ccc(C#N)cc1-n1c(=O)ccc2cnc3ccc(-c4ccc(CN(C)C)cc4)cc3c21 [Compound 7],7.60,–,–
–,–,–,7.04,3523,–,O=C(c1ccc(-n2c(=O)ccc3cnc4ccc(-c5ccc(Cl)cc5)cc4c32)c(Cl)c1)N1CCOCC1 [Compound 159],–,6.49,–
6.81,–,–,–,–,–,CCN1Cc2cc(-n3c(=O)ccc4cnc5ccc(-c6ccc(Cl)cc6)cc5c43)ccc2C1=O [Compound 351],5.67,–,–
7.63,14.9,0.06,–,–,–,CN1C(=O)CCc2cc(-n3c(=O)ccc4cnc5ccc(-c6ccc(Cl)cc6)cc5c43)ccc21 [Compound 359],6.89,–,–
–,<1.0,–,–,–,–,COC(=O)CN1Cc2cc(-n3c(=O)ccc4cnc5ccc(-c6ccc(Cl)cc6)cc5c43)ccc2C1=O [Compound 345],5.42,–,–
